# Laboratory results published in PubChem BioAssay AID179 (DTP/NCI, 2004).
# pEC50, pIC50: −log10 of the molar value. “And” between values parts separate entries of the source, which are not always exact repeats. Identical values can stand only once. The source made the active and inactive calls.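 Rule for the calls: active = compounds giving half or more protection of infected cells from virus-caused growth loss, again on retest; inactive = the rest.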 Where a SMILES comes first, the peptide text is derived from it. [ ]: non-standard residue; d: D form. The star is where a group is joined. Phe(4-NO2) = N[CH](Cc1ccc([N+](=O)[O-])cc1)C(=O)O; Boc = CC(C)(C)OC(=O)*; OBn = c1ccc(CO*)cc1
# Tested on: CEM cells HIV-1 protection, formazan growth assay
# Test: NCI AIDS Antiviral Assay
# Conditions: for pIC50: measured here: growth of uninfected CEM cells
# Outline: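 CEM (human) cells, HIV-1 infected vs uninfected, 5-point dosing, formazan growth read-out. Retest threshold 50% protection.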
Structure (SMILES),pEC50,pIC50,outcome
C#Cc1cccc(N2C(=O)c3c(c(-c4ccccc4)c(-c4ccc(Cc5ccc(-c6c(-c7ccccc7)c7c(c(-c8ccccc8)c6-c6ccccc6)C(=O)N(c6cccc(C#C)c6)C7=O)cc5)cc4)c(-c4ccccc4)c3-c3ccccc3)C2=O)c1,< 4.63,< 4.63,
CC(=O)NC(CCC(=O)c1ccc(Oc2ccccc2)cc1)(C(=O)O)C(=O)O,< 3.70,< 3.70,
Cc1[nH]c(=S)c(C#N)c(C)c1C,< 4.00,< 4.00,
COc1ccc(-c2cc(NC(=O)c3ccccc3)c(=O)oc2C)cc1,< 3.70,< 3.70,
COc1cc(OC)nc(Nc2c(C#N)c3nc4ccccc4n3c3ccccc23)n1,< 4.00,< 4.00,
O=C(CC1=Nc2nnc(CCCCCCCc3nnc4n3C(=O)C(CC(=O)c3ccc5ccccc5c3)=N4)n2C1=O)c1ccc2ccccc2c1,< 5.39,< 5.39,
CC(=O)NCCC1CN(C(=O)/C=C/I)c2ccccc21 (stereo not given),< 3.70,5.96,
Cc1c(N)nc(C(CC(N)=O)NCC(N)C(N)=O)nc1C(=O)NC(C(=O)NC(C)C(O)C(C)C(=O)NC(C(=O)NCCc1nc(-c2nc(C(=O)NCCCNC(C)c3ccccc3)cs2)cs1)C(C)O)C(OC1OC(CO)C(O)C(O)C1OC1OC(CO)C(O)C(OC(N)=O)C1O)c1cnc[nH]1 (stereo not given),,,inactive
CC1(C)C=N[N+]2(C)C3C=CC(CC3)C12 (stereo not given),,,inactive
CCC(C)C(NC(=O)C(CCCCN)NC(=O)CNC(=O)C(NC(=O)C(NC(=O)C(NC(=O)C(Cc1ccccc1)NC(=O)C(C)NC(=O)C(CCCNC(=N)N)NC(=O)CNC(=O)C1CCCN1C(=O)CNC(=O)C(CCCNC(=N)N)NC(=O)C(CCC(N)=O)NC(=O)C(NC(=O)C(CCCNC(=N)N)NC(=O)C(NC(=O)C(COC1OC(CO)C(O)C(O)C1NC(C)=O)NC(=O)C(CCCCN)NC(=O)C(CCCNC(=N)N)NC(=O)C(NC(=O)C(CC(N)=O)NC(=O)C(N)CC(N)=O)C(C)O)C(C)CC)C(C)CC)C(C)C)C(C)OC1OC(CO)C(O)C(O)C1NC(C)=O)C(C)CC)C(=O)NCOC#N (stereo not given),< 4.56,< 4.56,
CC1/C=C/[C@@]2(C)CCC(C(C)(C)O)C2C(O)C[C@](C)(O)/C=C/C1 (stereo not given in full),,,inactive
CC(=O)Nc1cc2cc(NC=C(C#N)C#N)ccc2oc1=O,< 4.43,< 4.43,
COc1ccc(CC2C(=O)NC(=O)NC2=O)cc1OC,< 3.70,< 3.70,
O=C(CSc1nnc(-c2ccc(N=Cc3ccc(Cl)cc3)cc2)o1)Nc1ccccc1Cl,< 3.57,< 3.57,
CCOC(=O)[C@@H]1[C@@H](c2ccccc2)N(C)O[C@@]1(c1ccccc1)C(F)(F)F,< 3.70,4.32,
C[Si](C)(C)/C=C\CCNC=O,< 2.84,< 2.84,
CC(CC(=O)Nc1ccc(NC(=O)CC(C)N=NC(N)=S)cc1)N=NC(N)=S (stereo not given),< 3.80,3.99,
CCOP(=O)(CC(C)P(=O)(OCC)OCC)OCC.C[CH2][Sn]([Cl])([Cl])[CH2]C (stereo not given),< 3.35,5.77,
COc1ccc(-c2cc(=O)c3c(O)cc(O)cc3o2)cc1,< 3.98,< 3.98,
C=C1C(=O)O[C@H]2C1C(OC(=O)/C(C)=C/C)C(OC(C)=O)[C@@](C)(O)C1C2C(C)=C[C@H]1OC(C)=O (stereo not given in full),< 3.85,5.21,
CC(C)=CCC1=C(O)c2ccccc2C(=O)C1=O,,,inactive
CCCCCCCCCCCCCCCC(=O)OCCOCCOCCOCc1ccccc1,,,inactive
O=[N+]([O-])/C=C/c1cn(CCCCCCCCn2cc(/C=C/[N+](=O)[O-])c3ccccc32)c2ccccc12,< 3.70,4.45,
C#CCCOC(=O)c1ccccc1OC(C)=O,< 3.70,< 3.70,
Clc1cccc(C2SCc3nc4ccccc4n32)c1Cl (stereo not given),,,inactive
COc1cc(O)c2c(=O)c(O)c(-c3ccc(O)c(OC)c3)oc2c1,< 3.70,< 3.70,
Cc1cc(N(CCC#N)CCC#N)ccc1N=Nc1ccc(S(N)(=O)=O)cc1,< 3.77,< 3.77,

Structure (SMILES),pEC50,pIC50,outcome
CC(C)OP(=O)(OC(C)C)C(C(F)(F)F)C(F)(F)F,< 3.70,< 3.70,
O=C1C=C(c2ccccc2)C2(c3ccccc3)C1C1C(c3ccccc3)=C(c3ccccc3)C2C12SCCS2 (stereo not given),< 3.70,5.47,
CCOC(=O)CCC(NC(=O)C(N)c1ccc([N+](=O)[O-])cc1)C(=O)NC(CCC(=O)OCC)C(=O)OCC (stereo not given),< 3.70,< 3.70,
COC(=O)CCC(NC(=O)OC(C)(C)C)C(=O)NC(Cc1ccc([N+](=O)[O-])cc1)C(=O)NCC(=O)OCc1ccccc1 (stereo not given) (Boc-Glu(OMe)-[Phe(4-NO2)]-Gly-OBn; configuration not given here),< 3.70,< 3.70,
COc1cccc2c1C(=O)c1c(O)c3c(c(O)c1C2=O)C[C@@](O)(/C(C)=N/NC(=O)c1ccccc1)C[C@@H]3OC1CC(N)C(O)C(C)O1 (stereo not given in full),< 4.30,7.80,
COc1ccc(C[C@@H](CO)NC2=C(C#N)CCC2)cc1,< 3.70,4.19,
C=CCSC(C)=O,< 3.70,< 3.70,
C[N+](C)([O-])C12CC3CC(CC(C3)C1)C2,< 3.70,< 3.70,
Nc1ccc(/C=C2\C=Cc3ccccc32)cc1,< 3.70,4.55,
O=c1[nH]c2cn(-c3ccccc3)nc2c(=O)n1O,< 3.70,5.45,
O=C(COc1ccc(Cl)cc1)N1CCN(C(=O)COc2ccc(Cl)cc2)c2ccccc21,< 4.96,< 4.96,
O=C(O)/C(Cl)=C(/Cl)C(=O)Nc1cccc(Cl)c1,,,inactive
CCOC(=O)C1=C(C)C(C(=O)OC)/C(=C/c2cccc3cccnc23)C1=O (stereo not given),< 3.70,4.97,
CON(C)C(=O)C(C)NC(=O)OCc1ccccc1 (stereo not given),< 3.03,3.09,
COc1ccccc1NC(=O)/C(C=NC(=S)C(N)=S)=C(\C)O,,,inactive
COc1ccc(N2C(=O)CC(=O)N(C(=O)COc3ccc(OCC(=O)N4C(=O)CC(=O)N(c5ccc(OC)cc5)C4=S)cc3)C2=S)cc1,< 3.70,4.30,
CC1(C)OC(=O)C(Cc2ccccc2)(Cc2ccccc2)C(=O)O1,,,inactive
C[C@@H]1C(=O)CC2(O)[C@@]13C[C@@H](OC(=O)[C@@H]3O)[C@@H](C)[C@@]21COC1=O (stereo not given in full),< 3.09,< 3.09,
Cc1c(C(=N)C(C#N)C#N)c(=N)oc2c1ccc1ccccc12,< 3.70,4.57,
O=c1oc2ccccc2c(O)c1C(c1ccc2c(c1)OCO2)N1CCOCC1 (stereo not given),< 3.70,< 4.00,
COc1ccccc1NC(=S)/N=C/c1c(O)cc(C)oc1=O,< 3.70,< 3.70,
CCCSS[C@H]1NC(=O)[C@H]1NC(=O)COc1ccccc1,< 4.66,< 4.66,
COc1c2oc(=O)ccc2c(Br)c2c(Br)c(Br)oc12,< 3.99,4.32,
Cc1ccc2scc3c4ccccc4nc-3c2c1,< 3.70,6.32,
ClC(Cl)(Cl)C1CCOC1n1nnc2ccccc21 (stereo not given),,,inactive
O=c1[nH]c2cc(C(F)(F)F)ccc2nc1CBr,< 3.70,5.18,
O=c1cc2cccccc-2o1,< 3.22,3.53,

Structure (SMILES),pEC50,pIC50,outcome
CCCCCC=C(c1cc(I)c(OC)c(C(=O)OC)c1)c1cc(I)c(OC)c(C(=O)OC)c1,< 3.70,3.78,
COc1ccccc1C1=C2C(=O)N(C)C(c3ccccc3OC)=C2C(=O)N1C,< 4.00,< 4.00,
Cc1nc(N)[nH]c(=O)c1CCCNc1ccc(C(=O)NC(CCC(=O)O)C(=O)O)cc1 (stereo not given),< 3.70,5.56,
CC(C)(C)[Si](C)(C)OCC1OC(n2ccc(=O)[nH]c2=O)C(O[Si](C)(C)C(C)(C)C)[C@@]12O[C@H]2C(N)=O (stereo not given in full),< 3.70,5.11,
Cn1c(N2CCCC2)c(C=O)c(=O)n(C)c1=O,,,inactive
CN(C)c1nc2oc(-c3ccccc3)c(-c3ccccc3)c2c2nncn12,< 3.82,< 3.82,
N#CC1(Cc2ccccc2[N+](=O)[O-])c2ccccc2C2C(N1C(=O)c1ccccc1)C2(Cl)Cl (stereo not given),,,inactive
C=C1CN(S(=O)(=O)c2ccc(C)cc2)CCCN(CCCC)CCCN(S(=O)(=O)c2ccc(C)cc2)C1,< 3.70,5.72,
O=C1CCCCC/C1=C\c1ccc(F)cc1,< 3.70,4.21,
O=C1CCCC1(CCSc1ccccc1)C(CCCl)Sc1ccccc1 (stereo not given),< 5.05,< 5.05,
O=c1[nH]ccc(CNC23CC4CC(CC(C4)C2)C3)c1O,< 4.34,< 4.34,
CC1SCc2nc3ccccc3n21 (stereo not given),< 3.70,< 3.70,
O=C(O)Cn1ccc(=O)c2cc([N+](=O)[O-])ccc21,< 3.70,< 3.70,
NC1=NC(Cn2nc(-c3ccccc3)c3ccccc3c2=O)=NNC(=O)N1,< 4.70,< 4.70,
CCCCNc1ccc(/C=C2\C=Cc3ccccc32)cc1,< 5.00,< 5.00,
CCn1c(CSc2nc(-c3ccccc3)c(-c3ccccc3)[nH]2)n[nH]c1=S,< 4.04,4.28,
CC1=C(C(=O)O)CCC2(C)c3ccc(C(C)C)c(O)c3CCC12 (stereo not given),< 3.70,4.33,
[N-]=[N+]=Nc1c([N+](=O)[O-])c(=O)n(-c2ccccc2)c2ccccc12,< 3.70,4.87,
[O-][n+]1onc(-c2ccccc2)c1-c1ccccc1,< 3.82,< 3.82,
COC1=CC(=O)C(O)=C(CC2(C)C(C)CCC3(C)C2CCCC3(C)C)C1=O (stereo not given),< 4.02,5.19,
NC(C(=O)O)C(CC(=O)O)c1ccccc1 (stereo not given),< 3.70,3.95 and < 3.70,
O=CN/C=C/c1ccccc1O,< 3.70,< 3.70,
CC(Cc1ccccc1)NN(CS(=O)(=O)O)CS(=O)(=O)O (stereo not given),,,inactive
O=CC(O)C(O)C(O)C(O)C(=O)NCCCCCCCCCCCCNC(=O)C(O)C(O)C(O)C(O)C=O (stereo not given),< 3.70,< 3.70,
CN1CCN(c2ncc3c(n2)sc2c(=O)n(-c4ccccc4)cnc23)CC1,< 3.70,< 3.70,
